Eleven compounds from patent US10611740B2, “Aryl dihydro-2H-benzo[b][1,4]oxazine sulfonamide and related compounds for use as agonists of RORγ and the treatment of disease” (Lycera Corporation, priority 2015, dated 2020) can be followed below.

Each structure is given as a SMILES string.

The target in one experiment is T1, Gal4-RORγ-LBD (Homo sapiens, UniProt P51449).
T1 construct: expressed in transfected cells; host or cells: HEK-293 cells (pcDNA3.1neo plasmid)
T1 sequence (P51449 269-508 limits assumed): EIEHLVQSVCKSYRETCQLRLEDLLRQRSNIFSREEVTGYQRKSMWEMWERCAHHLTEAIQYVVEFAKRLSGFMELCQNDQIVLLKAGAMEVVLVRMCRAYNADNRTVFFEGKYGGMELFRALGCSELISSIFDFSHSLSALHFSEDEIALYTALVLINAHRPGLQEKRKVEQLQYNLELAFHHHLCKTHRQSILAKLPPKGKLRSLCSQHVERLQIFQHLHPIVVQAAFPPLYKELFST
Nature of the experiment: Gal4-RORγ Luciferase Reporter Assay in HEK-293T Cells. The experiment is classed as cell-based. The following applies: HEK-293 cells. The method, boiled down: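 In transfected HEK-293 cells (Gal4-RORγ-LBD, Gal4-luciferase), test agents with 2 μM ursolic acid were incubated overnight at 37 °C before luminescent detection. Values are relative to the ursolic-acid-free, compound-free signal (100).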
(In general: Reporter assays use an easily measured gene product as a stand-in for the process of interest.)

A further experiment concerns the target T2, RORγ-LBD (Homo sapiens, UniProt P51449).
T2 construct: made in house; host or cells: SF9 cells (baculovirus)
T2 sequence (P51449 269-508 limits assumed): T1 sequence (P51449 269-508 limits assumed)
Put plainly: RORγ-Ligand Binding Domain (LBD) TR-FRET Assay.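 For TR-FRET Assay Max Response: 665/615 nm ratio relative to signal without ursolic acid or compound set at 100.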 It counts as biochemical. The method, boiled down: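 Lysate from SF9 cells expressing His-RORγ-LBD is diluted to about 3 nM final in 50 mM Tris pH 7.0 assay buffer. A biotin-tagged SRC1 LXXLL peptide goes in at 200 nM final, plus ursolic acid at 2 μM final. Test compounds carry 1% DMSO final; signal read by TR-FRET.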
For orientation: TR-FRET usually uses a lanthanide donor and a delayed reading to cut background.

Where [1] appears, read: luciferase reporter, with 2 μM ursolic acid.

`Cc1cc(C)cc(-c2ccc3c(c2)N(S(=O)(=O)c2cccc(C(F)(F)F)c2)C[C@H](CC(C)(C)C(=O)O)O3)c1` [Compound 32AS, (S)-3-(6-(3,5-dimethylphenyl)-4-((3-(trifluoromethyl)phenyl)-sulfonyl)-3,4-dihydro-2H-benzo[b][1,4]oxazin-2-yl)-2,2-dimethylpropanoic acid]: on Gal4-RORγ-LBD (2 μM ursolic acid), the EC50 is less than 500 nM and the “Gal4-RORγ Assay Max Response” value is “** (The symbol “**” indicates a value in the range of greater than 90 to 150)”. At RORγ-LBD, the EC50 is less than 500 nM and the “TR-FRET Assay Max Response” value is reported as “** (The symbol “**” indicates a value in the range of greater than 90 to 150)”.

Turning to `COc1cc(F)cc(-c2ccc3c(c2)N(S(=O)(=O)c2cccc(C(F)(F)F)c2)C[C@H](CNC(=O)[C@@](C)(O)C(F)(F)F)O3)c1F` [Compound 30BF, (R)-N-(((S)-6-(2,5-difluoro-3-methoxyphenyl)-4-((3-(trifluoro-methyl)phenyl)sulfonyl)-3,4-dihydro-2H-benzo[b][1,4]-oxazin-2-yl)methyl)-3,3,3-trifluoro-2-hydroxy-2-methylpropanamide], at Gal4-RORγ-LBD (setting [1]), the EC50 is less than 500 nM and the “Gal4-RORγ Assay Max Response” value is reported as “* (The symbol “*” indicates a value in the range of 25 to 90)”. On RORγ-LBD, the EC50 was less than 500 nM and the “TR-FRET Assay Max Response” value is recorded as “**** (The symbol “****” indicates a value greater than 200)”.

Consider `CC(C)(C[C@H]1CN(S(=O)(=O)c2cccc(C(F)(F)F)c2)c2cc(-c3cccc(C(F)(F)F)c3Cl)ccc2O1)C(=O)O` [Compound 32AA, (S)-3-(6-(2-chloro-3-(trifluoromethyl)phenyl)-4-((3-(trifluoromethyl)phenyl)sulfonyl)-3,4-dihydro-2H-benzo[b][1,4]-oxazin-2-yl)-2,2-dimethyl-propanoic acid], for which, on Gal4-RORγ-LBD (2 μM ursolic acid), the EC50 was less than 500 nM and the “Gal4-RORγ Assay Max Response” value is reported as “** (The symbol “**” indicates a value in the range of greater than 90 to 150)”. Besides, at RORγ-LBD, the EC50 was less than 500 nM and the “TR-FRET Assay Max Response” value is given as “**** (The symbol “****” indicates a value greater than 200)”.

Consider `O=c1[nH]nc(CC[C@H]2CN(S(=O)(=O)c3cccc(C(F)(F)F)c3)c3cc(-c4cncc(C(F)(F)F)c4)ccc3O2)o1` [Compound 28C, (S)-5-(2-(4-((3-(trifluoromethyl)-phenyl)sulfonyl)-6-(5-(trifluoromethyl)pyridin-3-yl)-3,4-dihydro-2H-benzo[b][1,4]oxazin-2-yl)ethyl)-1,3,4-oxadiazol-2(3H)-one], for which, on Gal4-RORγ-LBD (setting [1]), the EC50 is less than 500 nM and the “Gal4-RORγ Assay Max Response” value is “* (The symbol “*” indicates a value in the range of 25 to 90)”. Moreover, on RORγ-LBD, the EC50 is less than 500 nM and the “TR-FRET Assay Max Response” value is recorded as “**** (The symbol “****” indicates a value greater than 200)”.

With `CC(=O)NCC[C@H]1CN(S(=O)(=O)c2cccc(C(F)(F)F)c2)c2cc(-c3cc(F)ccc3F)ccc2O1` [Compound 13, (S)—N-(2-(6-(2,5-difluorophenyl)-4-((3-(trifluoromethyl)phenyl)sulfonyl)-3,4-dihydro-2H-benzo[b][1,4]oxazin-2-yl)ethyl)acetamide], at Gal4-RORγ-LBD (2 μM ursolic acid), the EC50 was less than 500 nM and the “Gal4-RORγ Assay Max Response” value is given as “** (The symbol “**” indicates a value in the range of greater than 90 to 150)”. Also, on RORγ-LBD, the EC50 is less than 500 nM and the “TR-FRET Assay Max Response” value is “**** (The symbol “****” indicates a value greater than 200)”.

As to `O=C(NC[C@H]1CN(S(=O)(=O)c2cccc(C(F)(F)F)c2)c2cc(-c3cc(F)cc(OC(F)F)c3)ccc2O1)C1(F)CC1` [Compound 30DJ, (S)-N-((6-(3-(difluoromethoxy)-5-fluorophenyl)-4-((3-(trifluoro-methyl)phenyl)sulfonyl)-3,4-dihydro-2H-benzo[b][1,4]-oxazin-2-yl)methyl)-1-fluorocyclopropane-1-carboxamide], at Gal4-RORγ-LBD (2 μM ursolic acid), the EC50 lay in the range of 500 to 5000 nM and the “Gal4-RORγ Assay Max Response” value is listed as “* (The symbol “*” indicates a value in the range of 25 to 90)”. At RORγ-LBD, the EC50 is less than 500 nM and the “TR-FRET Assay Max Response” value was “*** (The symbol “***” indicates a value in the range of greater than 150 to 200)”.

With `O=C(O)CC[C@H]1CN(S(=O)(=O)c2cccc(C(F)(F)F)c2)c2cc(-c3cc(F)ccc3F)ccc2O1` [Compound 2AD, (S)-3-(6-(2,5-difluorophenyl)-4-((3-(trifluoromethyl)-phenyl)sulfonyl)-3,4-dihydro-2H-benzo[b][1,4]oxazin-2-yl)propanoic acid], on Gal4-RORγ-LBD (setting [1]), the EC50 is less than 500 nM and the “Gal4-RORγ Assay Max Response” value is reported as “*** (The symbol “***” indicates a value in the range of greater than 150 to 200)”. Further, on RORγ-LBD, the EC50 was less than 500 nM and the “TR-FRET Assay Max Response” value is on record as “**** (The symbol “****” indicates a value greater than 200)”.

On to `CC(C)(C[C@H]1CN(S(=O)(=O)c2cccc(C(F)(F)F)c2)c2cc(-c3cc(F)cc(F)c3)ccc2O1)C(=O)O` [Compound 32N, (S)-3-(6-(3,5-difluorophenyl)-4-((3-(trifluoromethyl)phenyl)-sulfonyl)-3,4-dihydro-2H-benzo[b][1,4]oxazin-2-yl)-2,2-dimethylpropanoic acid], for which, on Gal4-RORγ-LBD (setting [1]), the EC50 was less than 500 nM and the “Gal4-RORγ Assay Max Response” value is “** (The symbol “**” indicates a value in the range of greater than 90 to 150)”. Also, at RORγ-LBD, the EC50 was less than 500 nM and the “TR-FRET Assay Max Response” value is “*** (The symbol “***” indicates a value in the range of greater than 150 to 200)”.

As to `CN(C)c1cccc(-c2ccc3c(c2)N(S(=O)(=O)c2cccc(C(F)(F)F)c2)C[C@H](CCc2n[nH]c(=O)o2)O3)n1` [Compound 28B, (S)-5-(2-(6-(6-(dimethylamino)-pyridin-2-yl)-4-((3-(trifluoro-methyl)phenyl)sulfonyl)-3,4-dihydro-2H-benzo[b][1,4]oxazin-2-yl)ethyl)-1,3,4-oxadiazol-2(3H)-one], at Gal4-RORγ-LBD (setting [1]), the EC50 is less than 500 nM and the “Gal4-RORγ Assay Max Response” value is listed as “** (The symbol “**” indicates a value in the range of greater than 90 to 150)”. At RORγ-LBD, the EC50 is less than 500 nM and the “TR-FRET Assay Max Response” value is “**** (The symbol “****” indicates a value greater than 200)”.

`O=C(O)C1(C[C@H]2CN(S(=O)(=O)c3cccc(C(F)(F)F)c3)c3cc(-c4cccc(Cl)c4F)ccc3O2)CCOCC1` [Compound 78F, (S)-4-((6-(3-chloro-2-fluoro-phenyl)-4-((3-(trifluoromethyl)-phenyl)sulfonyl)-3,4-dihydro-2H-benzo[b][1,4]oxazin-2-yl)methyl)tetrahydro-2H-pyran-4-carboxylic acid]: at Gal4-RORγ-LBD (2 μM ursolic acid), the EC50 was less than 500 nM and the “Gal4-RORγ Assay Max Response” value was “** (The symbol “**” indicates a value in the range of greater than 90 to 150)”. Also, at RORγ-LBD, the EC50 was less than 500 nM and the “TR-FRET Assay Max Response” value is “** (The symbol “**” indicates a value in the range of greater than 90 to 150)”.

Turning to `COc1cc(S(=O)(=O)N2C[C@H](CNS(=O)(=O)N(C)C)Oc3ccc(-c4cc(F)ccc4F)cc32)ccc1F` [Compound 45C, ([[(2S)-6-(2,5-difluorophenyl)-4-[[4-fluoro-3-methoxy-benzene]-sulfonyl]-3,4-dihydro-2H-1,4-benzoxazin-2-yl]methyl]sulfamoyl)-(dimethyl)amine], at Gal4-RORγ-LBD (setting [1]), the EC50 was less than 500 nM and the “Gal4-RORγ Assay Max Response” value is recorded as “* (The symbol “*” indicates a value in the range of 25 to 90)”. For the same compound, on RORγ-LBD, the EC50 is less than 500 nM and the “TR-FRET Assay Max Response” value is “*** (The symbol “***” indicates a value in the range of greater than 150 to 200)”.

In general, EC50 refers to the concentration needed to bring the measured effect to its halfway point. Lower therefore signals higher potency in that assay.
